From patent publication US12583839B2, “PD-L1 antagonist compound” (ADLAI NORTYE BIOPHARMA CO., LTD., priority 2019, dated 2026)

Target: T1, PD-1/PD-L1 (Homo sapiens, UniProt Q9NZQ7)
T1 construct: 60535 (PD-1/NFAT-Reporter-Jurkat); host or cells: CHO cells expressing PD-L1; Jurkat cells expressing PD-1
Experiment: Detection of biological activity of PD-1/PD-L1 signaling inhibition at the cellular level (NFAT luciferase reporter, PD-1/NFAT-Reporter-Jurkat cells co-cultured with TCR activator/PD-L1-CHO cells)
Format: cell-based
Conditions: PD-1/NFAT-Reporter-Jurkat + TCR activator/PD-L1-CHO co-culture, 6 hours; Atezolizumab as positive control
Source text: Detection of Biological Activity of PD-1/PD-L1 Signaling Inhibition at the Cellular Level
This detection method is used for evaluating the biological activity of the compounds described in the present invention at the cellular level.
This detection method uses the luciferase reporter gene method to detect the biological activity of the compound on the inhibition of PD-1/PD-L1 signal at the cellular level. PD-1/NFAT—Reporter—Jurkat cells stably express human PD-1 and express the luciferase reporter gene regulated by NFAT elements; TCR activator/PD-L1-CHO cells stably express human PD-L1 and TCR activator elements. When the two cell lines were co-cultured, the binding of PD-1/PD-L1 inhibited the TCR signaling pathway, thereby inhibiting the expression of the downstream NFAT-controlled luciferase reporter gene. When PD-1/PD-L1 antibody or inhibitor is added, this inhibitory effect is reversed and luciferase is expressed, so that the effect of PD-1/PD-L1 inhibitor on luciferase activity can be detected.
PD-1/NFAT—Reporter—Jurkat cell (Cat: 60535) and TCR activator/PD-L1-CHO cell (Cat: 60536) were purchased from BPS Bioscience. Anti-human PD-L1 antibody (Atezolizumab, Cat: A2004) was purchased from Selleck; luciferase reporter gene expression detection kit (ONE-Glo™ Luciferase Assay System, Cat: E6120) was purchased from Promega; multifunction plate reader (SpectraMax i3x) was purchased from Molecular Devices.
The PD-1/NFAT—Reporter—Jurkat cells and TCR activator/PD-L1-CHO cells were cultured according to the routine cell culture protocol.
TCR activator/PD-L1-CHO cells were harvested and seeded into a 96-well culture plate at 35,000 cells/well in a medium volume of 100 μl and incubated overnight at 37° C. The next day, the medium was discarded, compound was added and incubated for 30 minutes, while a solvent control (dimethyl sulfoxide, DMSO, final concentration of 0.1%) and PD-L1 antibody (Atezolizumab, final concentration of about 10 nM) as positive controls were set. PD-1/NFAT-reporter-Jurkat cells were then added. After culturing for 6 hours, the luciferase activity was detected according to the instructions of the luciferase detection reagent.
Using PD-L1 antibody as a positive control, calculate the inhibition rate of PD-1/PD-L1 binding of the test compound (%)=(chemiluminescence value of compound treated wells/average value of chemiluminescence value of solvent control wells−1)/(average value of chemiluminescence value of PD-L1 antibody well/average value of chemiluminescence value of solvent control well−1)×100%.
According to the above detection method, the compounds of the present invention were evaluated for their biological activity at the cellular level, and the activity results are shown in the following table.

T1 sequence (Q9NZQ7 19-290): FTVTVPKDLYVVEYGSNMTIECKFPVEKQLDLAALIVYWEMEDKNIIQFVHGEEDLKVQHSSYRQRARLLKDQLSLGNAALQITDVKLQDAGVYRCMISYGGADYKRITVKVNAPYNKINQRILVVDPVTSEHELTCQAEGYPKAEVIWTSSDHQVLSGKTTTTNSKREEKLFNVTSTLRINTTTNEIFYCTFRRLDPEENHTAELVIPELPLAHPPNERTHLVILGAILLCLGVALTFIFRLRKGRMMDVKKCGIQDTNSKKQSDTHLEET

| EC50 [nM] | Compound |
| --- | --- |
| 15 | COc1cc(Cn2ncc3c(-c4cccc(-c5cc(F)c(CNC[C@@H]6CCC(=O)N6)c(OC)c5)c4Cl)cccc32)c(Cl)cc1CN(C)[C@H]1C[C@H](C(=O)O)C1 [Compound 113] |
| 14 | COc1cc(Cn2ncc3c(-c4cccc(-c5cc(F)c(CNC[C@@H]6CCC(=O)N6)c(OC)c5)c4Cl)cccc32)c(Cl)cc1CN(C)[C@H]1CC[C@H](C(=O)O)CC1 [Compound 114] |
| 16 | COc1cc(Cn2ncc3c(-c4cccc(-c5cc(F)c(CNC[C@@H]6CCC(=O)N6)c(OC)c5)c4Cl)cccc32)c(Cl)cc1CN(C)C1CCC(CC(=O)O)CC1 (stereo partly drawn) [Compound 115] |
| 16 | COc1cc(Cn2ncc3c(-c4cccc(-c5cc(F)c(CNC[C@@H]6CCC(=O)N6)c(OC)c5)c4Cl)cccc32)c(Cl)cc1CN(C)C12CCC(C(=O)O)(CC1)CC2 [Compound 116] |
| 152 | COc1cc(-c2cccc(-c3cccc4c3cnn4Cc3cc(OC)c(CN(C)C4CC(CC(=O)O)C4)cc3Cl)c2Cl)ccc1CNC[C@@H]1CCC(=O)N1 (stereo partly drawn) [Compound 119] |
| 134 | COc1cc(Cn2ncc3c(-c4cccc(-c5cc(F)c(CNC[C@@H]6CCC(=O)N6)c(OC)c5)c4Cl)cccc32)c(Cl)cc1CN(C)C[C@H]1CC[C@H](CC(=O)O)CC1 [Compound 130] |
| 40 | COc1cc(Cn2ncc3c(-c4cccc(-c5cc(F)c(CNC[C@@H]6CCC(=O)N6)c(OC)c5)c4Cl)cccc32)c(Cl)cc1CN(C)[C@H]1CC[C@H](CCC(=O)O)CC1 [Compound 131] |
| 23 | COc1cc(Cn2ncc3c(-c4cccc(-c5cc(F)c(CNC[C@@H]6CCC(=O)N6)c(OC)c5)c4Cl)cccc32)c(Cl)cc1CN(C)[C@H]1CC[C@H](/C=C/C(=O)O)CC1 [Compound 132] |
| 240 | COc1cc(Cn2ncc3c(-c4cccc(-c5cc(F)c(CNC[C@@H]6CCC(=O)N6)c(OC)c5)c4Cl)cccc32)c(Cl)cc1CN(C)C12CC(C(=O)O)(C1)C2 [Compound 136] |
| 15 | COc1cc(Cn2ncc3c(-c4cccc(-c5cc(F)c(CNC[C@@H]6CCC(=O)N6)c(OC)c5)c4Cl)cccc32)c(C#N)cc1CN(C)[C@H]1C[C@H](C(=O)O)C1 [Compound 139] |
| 25 | COc1cc(Cn2ncc3c(-c4cccc(-c5cc(F)c(CNC[C@@H]6CCC(=O)N6)c(OC)c5)c4Cl)cccc32)c(C#N)cc1CN(C)[C@]12CC[C@@](C(=O)O)(CC1)CC2 [Compound 140] |
| 40 | COc1cc(Cn2ncc3c(-c4cccc(-c5cc(F)c(CNC[C@@H]6CCC(=O)N6)c(OC)c5)c4Cl)cccc32)c(C#N)cc1CN(C)[C@H]1CC[C@H](CC(=O)O)CC1 [Compound 141] |
| 37 | COc1cc(Cn2ncc3c(-c4cccc(-c5cc(F)c(CNC[C@@H]6CCC(=O)N6)c(OC)c5)c4Cl)cccc32)c([N+](=O)[O-])cc1CN(C)[C@H]1CC[C@H](C(=O)O)CC1 [Compound 142] |
| 31 | COc1cc(Cn2ncc3c(-c4cccc(-c5cc(F)c(CNC[C@@H]6CCC(=O)N6)c(OC)c5)c4Cl)cccc32)c([N+](=O)[O-])cc1CN(C)[C@H]1C[C@H](C(=O)O)C1 [Compound 143] |
| 40 | COc1cc(Cn2ncc3c(-c4cccc(-c5cc(F)c(CNC[C@@H]6CCC(=O)N6)c(OC)c5)c4Cl)cccc32)c([N+](=O)[O-])cc1CN(C)[C@H]1CC[C@H](CC(=O)O)CC1 [Compound 144] |
| 32 | COc1cc(Cn2ncc3c(-c4cccc(-c5cc(F)c(CNC[C@@H]6CCC(=O)N6)c(OC)c5)c4Cl)cccc32)c(C(F)(F)F)cc1CN(C)[C@H]1CC[C@H](CC(=O)O)CC1 [Compound 147] |
| 34 | COc1cc(Cn2ncc3c(-c4cccc(-c5cc(F)c(CNC[C@@H]6CCC(=O)N6)c(OC)c5)c4Cl)cccc32)c(C(F)(F)F)cc1CN(C)[C@H]1CC[C@H](C(=O)O)CC1 [Compound 148] |
| 28 | COc1cc(Cn2ncc3c(-c4cccc(-c5cc(F)c(CNC[C@@H]6CCC(=O)N6)c(OC)c5)c4Cl)cccc32)c(C(F)(F)F)cc1CN(C)[C@H]1C[C@H](C(=O)O)C1 [Compound 149] |

The next lines start with the compound.

| Compound | EC50 [nM] |
| --- | --- |
| COc1cc(Cn2ncc3c(-c4cccc(-c5ccc(CNC[C@@H]6CCC(=O)N6)cc5)c4Cl)cc(Cl)cc32)c(Cl)cc1CN[C@@H](CO)C(=O)O [Compound 117] | 537 |
| COc1cc(-c2cccc(-c3cccc4c3cnn4Cc3cc(OC)c(CN(C)CC4CCC(CC(=O)O)CC4)cc3Cl)c2Cl)ccc1CNC[C@@H]1CCC(=O)N1 (stereo partly drawn) [Compound 118] | 53 |
| COc1cc(-c2cccc(-c3cccc4c3cnn4Cc3cc(OC)c(CN(C)C4CCC(/C=C/C(=O)O)CC4)cc3Cl)c2Cl)ccc1CNC[C@@H]1CCC(=O)N1 (stereo partly drawn) [Compound 120] | 32 |
| COc1cc(-c2cccc(-c3cccc4c3cnn4Cc3cc(OC)c(CN(C)C4CCC(CCC(=O)O)CC4)cc3Cl)c2Cl)ccc1CNC[C@@H]1CCC(=O)N1 (stereo partly drawn) [Compound 121] | 34 |
| COc1cc(-c2cccc(-c3cccc4c3cnn4Cc3cc(OC)c(CN(C4CCC(C(=O)O)CC4)C4CC4)cc3Cl)c2Cl)ccc1CNC[C@@H]1CCC(=O)N1 (stereo partly drawn) [Compound 122] | 320 |
| CCOc1cc(Cn2ncc3c(-c4cccc(-c5ccc(CNC[C@@H]6CCC(=O)N6)c(OC)c5)c4Cl)cccc32)c(Cl)cc1CN(C)C[C@H]1CC[C@H](C(=O)O)CC1 [Compound 124] | 91 |
| COc1cc(-c2cccc(-c3cccc4c3cnn4Cc3cc(OC)c(CN(Cc4ccccc4)[C@H]4CC[C@H](C(=O)O)CC4)cc3Cl)c2Cl)ccc1CNC[C@@H]1CCC(=O)N1 [Compound 125] | 680 |
| COc1cc(-c2cccc(-c3cccc4c3cnn4Cc3cc(OC)c(CN(CC4CC4)[C@H]4CC[C@H](C(=O)O)CC4)cc3Cl)c2Cl)ccc1CNC[C@@H]1CCC(=O)N1 [Compound 126] | 103 |
| COc1cc(-c2cccc(-c3cccc4c3cnn4Cc3cc(OCC(N)=O)c(CN(C)C[C@H]4CC[C@H](C(=O)O)CC4)cc3Cl)c2Cl)ccc1CNC[C@@H]1CCC(=O)N1 [Compound 127] | 160 |
| COc1cc(-c2cccc(-c3cccc4c3cnn4Cc3cc(OCC(=O)O)c(CN(C)C[C@H]4CC[C@H](C(=O)O)CC4)cc3Cl)c2Cl)ccc1CNC[C@@H]1CCC(=O)N1 [Compound 128] | 391 |
| COc1cc(-c2cccc(-c3cccc4c3cnn4Cc3cc(OC)c(CN(C)[C@H]4CC[C@H](C(=O)NS(C)(=O)=O)CC4)cc3Cl)c2Cl)ccc1CNC[C@@H]1CCC(=O)N1 [Compound 129] | 29 |
| COc1cc(Cn2ncc3c(-c4cccc(-c5ccc(CNC[C@@H]6CCC(=O)N6)c(OC)n5)c4Cl)cccc32)c(Cl)cc1CN(C)C12CCC(C(=O)O)(CC1)CC2 [Compound 133] | 81 |
| COc1cc(-c2cccc(-c3cccc4c3cnn4Cc3cc(OC[C@@H]4CCC(=O)N4)c(CN(C)C[C@H]4CC[C@H](C(=O)O)CC4)cc3Cl)c2Cl)ccc1CNC[C@@H]1CCC(=O)N1 [Compound 134] | 68 |
| COc1cc(-c2cccc(-c3cccc4c3cnn4Cc3nc(OC)c(CN(C)C45CCC(C(=O)O)(CC4)CC5)cc3Cl)c2Cl)cc(F)c1CNC[C@@H]1CCC(=O)N1 [Compound 135] | 25 |
| COc1nc(-c2cccc(-c3cccc4c3cnn4Cc3nc(OC)c(CN(C)C45CCC(C(=O)O)(CC4)CC5)cc3Cl)c2Cl)ccc1CNC[C@@H]1CCC(=O)N1 [Compound 137] | 41 |
| COc1cc(Cn2ncc3c(-c4cccc(-c5cc(F)c(CNC[C@@H]6CCC(=O)N6)c(OC)c5)c4Cl)cccc32)c([N+](=O)[O-])cc1CN(C)C12CCC(C(=O)O)(CC1)CC2 [Compound 145] | 51 |
| COc1cc(-c2cccc(-c3cccc4c3cnn4Cc3cc(OC)c(CN(C)C4CCC(CC(=O)O)CC4)cc3C(F)(F)F)c2Cl)ccc1CNC[C@@H]1CCC(=O)N1 (stereo partly drawn) [Compound 146] | 28 |
| COc1cc(Cn2ncc3c(-c4cccc(-c5cc(F)c(CNC[C@@H]6CCC(=O)N6)c(OC)c5)c4Cl)cccc32)c(C(F)(F)F)cc1CN(C)C12CCC(C(=O)O)(CC1)CC2 [Compound 150] | 30 |
| COc1cc(-c2cccc(-c3cccc4c3cnn4Cc3nc(OC)c(CN(C)[C@H]4CC[C@H](C(=O)O)CC4)cc3Cl)c2Cl)ccc1CNC[C@@H]1CCC(=O)N1 [Compound 151] | 63 |
| COc1cc(Cn2ncc3c(-c4cccc(-c5ccc(CNC[C@@H]6CCC(=O)N6)c(OC)n5)c4Cl)cccc32)c(Cl)cc1CN(C)[C@H]1CC[C@H](C(=O)O)CC1 [Compound 152] | 56 |
| COc1cc(-c2cccc(-c3cccc4c3cnn4Cc3cc(OC)c(CN(C)C4CCC(C(=O)O)CC4)cc3Cl)c2Cl)ccc1CNC[C@@H]1CCCC(=O)N1 (stereo partly drawn) [Compound 153] | 94 |
